From ChEMBL document CHEMBL5096223, “Design, synthesis, and biological evaluation of 2-arylamino-4-(piperidin-4-yloxy)pyrimidines as potent EGFRT790M/L858R inhibitors to treat non-small cell lung cancer” (Bioorg Med Chem, 2022) come the findings set out here.

Each structure is given as a SMILES string.

In one data set the test system is NCI-H358. As to the kind of experiment: Antiproliferative activity against human NCI-H358 cells harboring KRAS G12C mutant assessed as reduction in cell growth incubated for 72 hrs by MTT assay. The class given is functional, cell-based. Particulars: NCI-H358, 72 h. (Tetrazolium assays rely on reduction of a dye to a coloured formazan, in cell work by metabolically active cells.)

Data set [1] can be described thus: Cytotoxicity against human A-431 cells harboring wild type EGFR assessed as reduction in cell viability incubated for 72 hrs by MTT assay. The data set is classed as toxicity, cell-based.
A further data set relates to NCI-H1975. As to the kind of experiment: Antiproliferative activity against human NCI-H1975 cells harboring EGFR T790M/L858R mutant assessed as reduction in cell growth incubated for 72 hrs by MTT assay. The data set is classed as functional, cell-based. The following applies: NCI-H1975, 72 h.
A short description of data set [2]: Cytotoxicity against human HBE cells assessed as reduction in cell viability incubated for 72 hrs by MTT assay. The class given is toxicity, cell-based, Epithelial cell.
The test system of a further data set is ASPC1. As to the kind of experiment: Antiproliferative activity against human ASPC1 cells harboring KRAS G12D mutant assessed as reduction in cell growth incubated for 72 hrs by MTT assay. The class given is functional, cell-based. The following applies: ASPC1, 72 h.
The subject of the next data set is SW-620. Put plainly: Antiproliferative activity against human SW620 cells harboring KRAS G12V mutant assessed as reduction in cell growth incubated for 72 hrs by MTT assay. Particulars: SW-620, 72 h. The data set is classed as functional, cell-based.
Data set [3] can be described thus: Cytotoxicity against human L02 cells assessed as reduction in cell viability incubated for 72 hrs by MTT assay. The data set is classed as toxicity, cell-based.
The species named for a further data set is Homo sapiens. As to the kind of experiment: Selectivity index, ratio of IC50 for N-terminal GST-tagged human recombinant wild type EGFR (695 to end residues) expressed in baculovirus-infected Sf9 cells to IC50 for N-terminal GST-tagged human recombinant EGFR T790M/L858R mutant (695 to end residues) expressed in baculovirus-infected Sf9 cells. The class given is functional.

In data set [4] the target is Epidermal growth factor receptor (Homo sapiens, UniProt P00533). As to the kind of experiment: Inhibition of N-terminal GST-tagged human recombinant wild type EGFR (695 to end residues) expressed in baculovirus-infected Sf9 cells using poly (4:1 Glu,Tyr) peptide as substrate incubated for 60 mins in presence of ATP by ADP-Glo kinase assay. For orientation: ADP-Glo turns the ADP formed in a reaction into a luminescent signal.

Data set [5] addresses Epidermal growth factor receptor (Homo sapiens, UniProt P00533, L858R/T790M). Put plainly: Inhibition of N-terminal GST-tagged human recombinant EGFR T790M/L858R mutant (695 to end residues) expressed in baculovirus-infected Sf9 cells using poly (4:1 Glu,Tyr) peptide as substrate incubated for 60 mins in presence of ATP by ADP-Glo kinase assay.

Sequence of Epidermal growth factor receptor (Homo sapiens, UniProt P00533) (P00533 whole entry): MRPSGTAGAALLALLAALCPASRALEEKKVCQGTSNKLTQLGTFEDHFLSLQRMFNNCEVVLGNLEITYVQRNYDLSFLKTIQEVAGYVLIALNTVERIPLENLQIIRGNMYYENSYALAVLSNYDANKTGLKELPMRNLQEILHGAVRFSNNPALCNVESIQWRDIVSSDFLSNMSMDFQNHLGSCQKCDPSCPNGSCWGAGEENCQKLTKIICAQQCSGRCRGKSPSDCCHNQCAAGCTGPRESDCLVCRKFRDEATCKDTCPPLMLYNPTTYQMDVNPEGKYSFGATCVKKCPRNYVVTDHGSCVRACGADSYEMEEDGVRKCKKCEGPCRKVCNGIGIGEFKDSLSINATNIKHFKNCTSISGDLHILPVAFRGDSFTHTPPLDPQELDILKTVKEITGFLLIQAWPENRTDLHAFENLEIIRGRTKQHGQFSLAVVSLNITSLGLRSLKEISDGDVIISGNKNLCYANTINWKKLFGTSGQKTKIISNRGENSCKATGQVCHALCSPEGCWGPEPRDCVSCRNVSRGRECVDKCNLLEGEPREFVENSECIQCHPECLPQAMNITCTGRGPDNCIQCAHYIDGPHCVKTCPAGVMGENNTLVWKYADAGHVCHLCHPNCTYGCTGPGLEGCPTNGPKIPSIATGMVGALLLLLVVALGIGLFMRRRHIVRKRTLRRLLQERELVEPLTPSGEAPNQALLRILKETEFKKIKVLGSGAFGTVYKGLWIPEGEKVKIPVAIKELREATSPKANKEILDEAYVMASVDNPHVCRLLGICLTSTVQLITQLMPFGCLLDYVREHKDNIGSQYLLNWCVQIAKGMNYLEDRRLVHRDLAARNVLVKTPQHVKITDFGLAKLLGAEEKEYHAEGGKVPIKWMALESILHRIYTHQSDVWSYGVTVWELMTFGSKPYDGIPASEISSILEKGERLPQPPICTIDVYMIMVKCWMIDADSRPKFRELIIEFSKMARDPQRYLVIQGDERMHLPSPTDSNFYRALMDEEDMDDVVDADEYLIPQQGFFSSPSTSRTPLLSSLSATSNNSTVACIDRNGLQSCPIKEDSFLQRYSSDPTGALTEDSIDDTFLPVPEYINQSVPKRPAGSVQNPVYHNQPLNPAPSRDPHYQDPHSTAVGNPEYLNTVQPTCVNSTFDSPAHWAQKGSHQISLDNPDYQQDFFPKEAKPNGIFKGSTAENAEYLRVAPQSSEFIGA
Sequence of Epidermal growth factor receptor (Homo sapiens, UniProt P00533, L858R/T790M) (P00533 25-1210 T790M/L858R limits assumed): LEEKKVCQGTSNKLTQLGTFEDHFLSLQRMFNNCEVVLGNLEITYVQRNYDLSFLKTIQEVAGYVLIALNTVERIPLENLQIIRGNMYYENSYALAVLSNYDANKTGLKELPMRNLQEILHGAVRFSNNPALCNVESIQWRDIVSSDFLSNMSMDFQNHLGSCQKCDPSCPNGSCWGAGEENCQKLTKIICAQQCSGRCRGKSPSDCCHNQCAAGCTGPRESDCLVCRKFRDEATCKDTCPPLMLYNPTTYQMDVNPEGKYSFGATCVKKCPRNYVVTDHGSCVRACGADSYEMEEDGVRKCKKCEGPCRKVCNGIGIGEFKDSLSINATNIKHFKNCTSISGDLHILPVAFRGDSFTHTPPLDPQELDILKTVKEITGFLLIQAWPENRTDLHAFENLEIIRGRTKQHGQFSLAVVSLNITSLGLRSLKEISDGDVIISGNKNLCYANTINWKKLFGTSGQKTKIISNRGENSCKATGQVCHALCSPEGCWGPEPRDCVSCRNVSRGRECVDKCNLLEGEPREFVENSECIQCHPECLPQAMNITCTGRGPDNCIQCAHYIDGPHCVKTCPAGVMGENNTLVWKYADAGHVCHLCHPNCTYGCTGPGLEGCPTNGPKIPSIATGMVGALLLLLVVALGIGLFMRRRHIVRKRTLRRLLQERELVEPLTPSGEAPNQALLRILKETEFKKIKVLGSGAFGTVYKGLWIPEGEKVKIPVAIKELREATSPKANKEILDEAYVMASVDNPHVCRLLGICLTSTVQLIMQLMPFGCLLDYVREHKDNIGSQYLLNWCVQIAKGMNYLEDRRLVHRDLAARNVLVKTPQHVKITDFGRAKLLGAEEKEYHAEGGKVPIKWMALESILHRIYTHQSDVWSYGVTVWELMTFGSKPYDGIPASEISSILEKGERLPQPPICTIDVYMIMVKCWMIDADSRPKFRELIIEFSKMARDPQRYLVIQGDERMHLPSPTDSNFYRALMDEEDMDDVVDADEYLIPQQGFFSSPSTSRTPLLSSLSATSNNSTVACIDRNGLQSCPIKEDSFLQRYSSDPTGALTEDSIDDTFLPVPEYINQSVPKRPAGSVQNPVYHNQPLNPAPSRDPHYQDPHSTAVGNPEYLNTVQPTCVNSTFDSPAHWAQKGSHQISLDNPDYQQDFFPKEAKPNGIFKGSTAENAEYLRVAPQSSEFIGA

Turning to `C=CC(=O)N1CCC(Oc2nc(Nc3ccc(N4CCN(C)CC4)c(F)c3)ncc2Cl)CC1`, the IC50 in the data set on NCI-H358 was 1.51 µM; with NCI-H1975, 2.09 µM; in the data set on ASPC1, 3.88 µM; in the data set on SW-620, 1.64 µM. Moreover, the figures for the IC50 at 72 h in data set [1], in data set [2] and in data set [3] were 3.26 µM, 8.91 µM and 5.38 µM, respectively.

For the compound `C=CC(=O)N1CCC(Oc2nc(Nc3ccc(N4CCN(C)CC4)cc3OC)nc3ccsc23)CC1`, the concentration for half-maximal inhibition (IC50) in the data set with NCI-H358 was 7.4 µM; in the data set on NCI-H1975, 1.67 µM; in data set [4], 0.247 µM; in [5], 0.0142 µM; in the data set with ASPC1, 0.65 µM; in the data set with SW-620, 7.33 µM. In addition, the IC50 at 72 h in data set [1] amounted to 2.07 µM; in data set [2] it was 18.6 µM; in data set [3], 1.97 µM. Also, the Ratio IC50 in the data set listed under Homo sapiens was 17.4.

Turning to `C=CC(=O)N1CCC(Oc2nc(Nc3ccc(N4CCN(C)CC4)cc3OC)nc3[nH]ccc23)CC1`, the IC50 with NCI-H358 amounted to 9.86 µM; with NCI-H1975, 4.36 µM; in [4] it was 0.0368 µM; in [5], 0.0123 µM; with ASPC1 it was 7.04 µM; with SW-620, 9.88 µM. Further, the figures for the IC50 at 72 h in data set [1], in data set [2] and in [3] were 2.71 µM, more than 20 µM and 18 µM, respectively. Moreover, in the data set filed under Homo sapiens, the Ratio IC50 came to 2.99.

For the compound `C=CC(=O)N1CCC(Oc2nc(Nc3ccc(N4CCOCC4)cc3)nc3ccsc23)CC1`, the IC50 came out at 16.5 µM with NCI-H358; 5.8 µM with NCI-H1975; 0.197 µM in [4]; 0.00653 µM in data set [5]; 2.77 µM in the data set on ASPC1; 4.82 µM in the data set with SW-620. Besides, the IC50 at 72 h in data set [1] amounted to 3.89 µM; in data set [2] it was 16.7 µM; in data set [3], 16.2 µM. The Ratio IC50 in the data set filed under Homo sapiens came to 30.2.

Regarding `C=CC(=O)N1CCC(Oc2nc(Nc3ccc(CN4CCC(CO)CC4)cc3)ncc2Cl)CC1`, the IC50 in the data set on NCI-H358 was found to be 16 µM; with NCI-H1975, 1.07 µM; in [4], 0.18 µM; in data set [5] it was 0.0123 µM; with ASPC1 it was 2.18 µM; in the data set on SW-620 it was 1.99 µM. The IC50 at 72 h worked out at 1.84 µM in [1], 5.86 µM in [2] and 2.12 µM in data set [3]. In the data set filed under Homo sapiens, the Ratio IC50 is 14.6.

As to `C=CC(=O)N1CCC(Oc2nc(Nc3ccc(N4CCN(C)CC4)c(F)c3)nc3ccsc23)CC1`, the IC50 is 6.26 µM in the data set on NCI-H358, 1.89 µM with NCI-H1975, more than 20 µM in the data set on ASPC1 and 3.57 µM in the data set with SW-620. Moreover, the IC50 at 72 h in data set [1] amounted to 1.38 µM; in [2], 4.05 µM; in [3] it was 1.4 µM.

Consider `CCC(=O)N1CCC(Oc2nc(Nc3ccc(N4CCN(C)CC4)cc3)nc3ccsc23)CC1`, for which the figures for the half-maximal inhibitory concentration (IC50) (in the data set on NCI-H1975; in [4]; in [5]) were 26.1 µM, 0.268 µM and 0.356 µM, respectively.

Consider `C=CC(=O)N1CCC(Oc2nc(Nc3ccc(N4CCN(C)CC4)cc3)ncc2Cl)CC1`, for which the IC50 in the data set on NCI-H358 was determined as 3.96 µM; in the data set on NCI-H1975, 1.7 µM; with ASPC1, 5.84 µM; in the data set with SW-620, 4.63 µM. In addition, the IC50 at 72 h stood at 1.45 µM in [1], 15 µM in data set [2] and 8.77 µM in [3].

`C=CC(=O)N1CCC(Oc2nc(Nc3ccc(N4CCN(C(C)=O)CC4)cc3OC)nc3[nH]ccc23)CC1`: the IC50 is 3.56 µM in the data set with NCI-H358; 3.78 µM in the data set with NCI-H1975; 0.133 µM in [4]; 0.0313 µM in data set [5]; 4.92 µM with ASPC1; 5.8 µM in the data set with SW-620. The IC50 at 72 h in [1] was determined as 3.51 µM; in data set [2] it was 12.9 µM; in data set [3], 16.1 µM. For the same compound, the Ratio IC50 in the data set listed under Homo sapiens was 4.23.

For `C=CC(=O)N1CCC(Oc2nc(Nc3cnn(C)c3)nc3[nH]ccc23)CC1`, the half-maximal inhibitory concentration (IC50) with NCI-H358 is 3.07 µM; in the data set on NCI-H1975, 0.93 µM; in data set [4], 0.387 µM; in [5], 0.204 µM; with ASPC1, 1.15 µM; in the data set on SW-620, 2.36 µM. The IC50 at 72 h in [1] was 3.99 µM; in data set [2] it was more than 20 µM; in data set [3] it was 10.2 µM. In addition, in the data set filed under Homo sapiens, the Ratio IC50 came out at 1.9.

`C=CC(=O)N1CCC(Oc2nc(Nc3cnn(C)c3)nc3ccsc23)CC1`: the IC50 in the data set with NCI-H358 stood at 17.6 µM; in the data set on NCI-H1975, 2.31 µM; in data set [4] it was 0.196 µM; in data set [5], 0.135 µM; in the data set with ASPC1, 0.71 µM; in the data set with SW-620, 6.2 µM. Moreover, the IC50 at 72 h is 4.77 µM in data set [1], more than 20 µM in [2] and 8.92 µM in data set [3]. Also, the Ratio IC50 in the data set listed under Homo sapiens came to 1.45.

Regarding `C=CC(=O)N1CCC(Oc2nc(Nc3ccc(N4CCN(C)CC4)c(F)c3)nc3[nH]ccc23)CC1`, the IC50 in the data set on NCI-H358 is 3.62 µM; in the data set with NCI-H1975, 0.89 µM; in data set [4], 0.119 µM; in data set [5], 0.0134 µM; with ASPC1, 0.4 µM; in the data set with SW-620, 1.6 µM. Besides, the IC50 at 72 h turned out to be 1.29 µM in data set [1], 3.02 µM in [2] and 1.89 µM in data set [3]. Besides, the Ratio IC50 in the data set listed under Homo sapiens was determined as 8.87.

Regarding `C=CC(=O)N1CCC(Oc2nc(Nc3ccc(N4CCOCC4)cc3OC)nc3ccsc23)CC1`, the IC50 with NCI-H358 was more than 20 µM; with NCI-H1975, 5.87 µM; in [4], 0.246 µM; in data set [5], 0.00966 µM; in the data set with ASPC1, 0.51 µM; in the data set with SW-620, 8.67 µM. For the same compound, the values for the IC50 at 72 h in data set [1], in data set [2] and in data set [3] were 15.2 µM, more than 20 µM and 18.2 µM, respectively. In addition, the Ratio IC50 in the data set filed under Homo sapiens worked out at 25.5.

For the compound `C=CC(=O)N1CCC(Oc2nc(Nc3ccc(N4CCN(C(C)=O)CC4)cc3OC)nc3ccsc23)CC1`, the IC50 with NCI-H358 is 14.6 µM; with NCI-H1975, 3.74 µM; in [4] it was 0.0607 µM; in data set [5] it was 0.0202 µM; in the data set with ASPC1, 0.48 µM; with SW-620 it was 8.61 µM. In addition, the IC50 at 72 h in data set [1] turned out to be 3.92 µM; in data set [2], 18.9 µM; in [3] it was 10.6 µM. Further, the Ratio IC50 in the data set filed under Homo sapiens stood at 3.

Take `C=CC(=O)N1CCC(Oc2nc(Nc3ccc(N4CCN(C)CC4)cc3)nc3[nH]ccc23)CC1`: the IC50 was found to be 4.22 µM with NCI-H358; 1.72 µM in the data set with NCI-H1975; 0.0361 µM in data set [4]; 0.00568 µM in data set [5]; 1.21 µM in the data set with ASPC1; 2.47 µM in the data set with SW-620. Also, the IC50 at 72 h came to 1.65 µM in data set [1], 7.94 µM in [2] and 6.25 µM in data set [3]. The Ratio IC50 in the data set filed under Homo sapiens was determined as 6.35.

For the compound `C=CC(=O)N1CCC(Oc2nc(Nc3ccn(C)n3)nc3ccsc23)CC1`, the IC50 with NCI-H358 was 20 µM; in the data set with NCI-H1975, 16.7 µM; in data set [4] it was 0.224 µM; in data set [5], 0.126 µM; in the data set on ASPC1, less than 0.2 µM; in the data set on SW-620, more than 20 µM. For the same compound, the IC50 at 72 h in data set [1] was more than 20 µM; in data set [2], more than 20 µM; in [3], 16.7 µM. The Ratio IC50 in the data set filed under Homo sapiens was 1.78.

`C=CC(=O)N1CCC(Oc2nc(Nc3ccc(N(C)CCN(C)C)cc3OC)nc3[nH]ccc23)CC1`: the IC50 in the data set on NCI-H358 was 5.62 µM; in the data set on NCI-H1975, 4.14 µM; in data set [4], 0.0593 µM; in [5], 0.0077 µM; in the data set on ASPC1 it was 5.13 µM; in the data set with SW-620 it was 7.84 µM. For the same compound, the IC50 at 72 h in data set [1] is 16.7 µM; in data set [2], more than 20 µM; in data set [3], 19 µM. The Ratio IC50 in the data set filed under Homo sapiens was 7.7.

On to `C=CC(=O)N1CCC(Oc2nc(Nc3ccc(N4CCN(CCO)CC4)cc3)ncc2Cl)CC1`, for which the IC50 in the data set on NCI-H358 was found to be 4.66 µM; in the data set on NCI-H1975 it was 1.53 µM; in [4], 0.124 µM; in data set [5], 0.0421 µM; in the data set on ASPC1 it was 2.74 µM; in the data set on SW-620, 0.3 µM. In addition, the values for the IC50 at 72 h in data set [1], in [2] and in data set [3] were 2.01 µM, 16.1 µM and 4.47 µM, respectively. Moreover, the Ratio IC50 in the data set filed under Homo sapiens was found to be 2.94.

In the case of `C=CC(=O)Nc1cc(Nc2nccc(-c3cn(C)c4ccccc34)n2)c(OC)cc1N(C)CCN(C)C` [OSIMERTINIB], the IC50 at 72 h in [1] came to 1.32 µM.

One may read the IC50 as the concentration at which inhibition is half-maximal.
